Test results from ChEMBL document CHEMBL4507272 (2021).

Tests used:
[1] = target: Phosphatidylinositol 4,5-bisphosphate 3-kinase catalytic subunit delta isoform (Homo sapiens) (UniProt O00329); details: Compound concentration 1000.0 nM
[2] = target: RAC-beta serine/threonine-protein kinase (Homo sapiens) (UniProt P31751); details: Compound concentration 1000.0 nM
[3] = target: Serine/threonine-protein kinase PLK4 (Homo sapiens) (UniProt O00444); details: Compound concentration 1000.0 nM
[4] = target: Tyrosine-protein kinase Fes/Fps (Homo sapiens) (UniProt P07332); details: Compound concentration 1000.0 nM
[5] = target: Serine/threonine-protein kinase 16 (Homo sapiens) (UniProt O75716); details: Compound concentration 1000.0 nM
[6] = target: Cyclin-dependent kinase-like 2 (Homo sapiens) (UniProt Q92772); details: Compound concentration 1000.0 nM
[7] = target: Protein-tyrosine kinase 6 (Homo sapiens) (UniProt Q13882); details: Compound concentration 1000.0 nM
[8] = target: Tyrosine-protein kinase receptor UFO (Homo sapiens) (UniProt P30530); details: Compound concentration 1000.0 nM
[9] = target: Serine/threonine-protein kinase Nek4 (Homo sapiens) (UniProt P51957); details: Compound concentration 1000.0 nM
[10] = target: Tyrosine-protein kinase CSK (Homo sapiens) (UniProt P41240); details: Compound concentration 1000.0 nM
[11] = system: Epidermal growth factor receptor (Homo sapiens), P00533 [L858R,T790M]; details: Compound concentration 1000.0 nM
[12] = target: Ribosomal protein S6 kinase beta-1 (Homo sapiens) (UniProt P23443); details: Compound concentration 1000.0 nM
Ribosomal protein S6 kinase beta-1 (Homo sapiens), sequence (P23443 whole entry, looked up): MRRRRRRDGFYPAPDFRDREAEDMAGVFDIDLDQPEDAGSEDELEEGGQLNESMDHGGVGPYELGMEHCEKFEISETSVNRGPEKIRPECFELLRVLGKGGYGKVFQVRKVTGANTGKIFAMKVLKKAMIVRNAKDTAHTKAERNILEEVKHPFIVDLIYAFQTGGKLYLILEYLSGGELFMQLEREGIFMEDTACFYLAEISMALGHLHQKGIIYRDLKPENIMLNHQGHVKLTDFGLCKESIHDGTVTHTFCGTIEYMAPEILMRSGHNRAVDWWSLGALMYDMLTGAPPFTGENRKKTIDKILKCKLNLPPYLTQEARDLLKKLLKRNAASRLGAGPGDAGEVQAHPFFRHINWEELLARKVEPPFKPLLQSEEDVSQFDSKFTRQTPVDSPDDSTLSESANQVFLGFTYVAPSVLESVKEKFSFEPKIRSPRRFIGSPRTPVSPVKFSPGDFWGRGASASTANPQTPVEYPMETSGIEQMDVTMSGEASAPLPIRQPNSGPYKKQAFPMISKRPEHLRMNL

[13] = target: Serine/threonine-protein kinase PLK2 (Homo sapiens) (UniProt Q9NYY3); details: Compound concentration 1000.0 nM
[14] = target: Cyclin-dependent kinase 9 (Homo sapiens) (UniProt P50750); details: Compound concentration 1000.0 nM
[15] = target: Myosin-IIIb (Homo sapiens) (UniProt Q8WXR4); details: Compound concentration 1000.0 nM
Myosin-IIIb (Homo sapiens), sequence (Q8WXR4 whole entry): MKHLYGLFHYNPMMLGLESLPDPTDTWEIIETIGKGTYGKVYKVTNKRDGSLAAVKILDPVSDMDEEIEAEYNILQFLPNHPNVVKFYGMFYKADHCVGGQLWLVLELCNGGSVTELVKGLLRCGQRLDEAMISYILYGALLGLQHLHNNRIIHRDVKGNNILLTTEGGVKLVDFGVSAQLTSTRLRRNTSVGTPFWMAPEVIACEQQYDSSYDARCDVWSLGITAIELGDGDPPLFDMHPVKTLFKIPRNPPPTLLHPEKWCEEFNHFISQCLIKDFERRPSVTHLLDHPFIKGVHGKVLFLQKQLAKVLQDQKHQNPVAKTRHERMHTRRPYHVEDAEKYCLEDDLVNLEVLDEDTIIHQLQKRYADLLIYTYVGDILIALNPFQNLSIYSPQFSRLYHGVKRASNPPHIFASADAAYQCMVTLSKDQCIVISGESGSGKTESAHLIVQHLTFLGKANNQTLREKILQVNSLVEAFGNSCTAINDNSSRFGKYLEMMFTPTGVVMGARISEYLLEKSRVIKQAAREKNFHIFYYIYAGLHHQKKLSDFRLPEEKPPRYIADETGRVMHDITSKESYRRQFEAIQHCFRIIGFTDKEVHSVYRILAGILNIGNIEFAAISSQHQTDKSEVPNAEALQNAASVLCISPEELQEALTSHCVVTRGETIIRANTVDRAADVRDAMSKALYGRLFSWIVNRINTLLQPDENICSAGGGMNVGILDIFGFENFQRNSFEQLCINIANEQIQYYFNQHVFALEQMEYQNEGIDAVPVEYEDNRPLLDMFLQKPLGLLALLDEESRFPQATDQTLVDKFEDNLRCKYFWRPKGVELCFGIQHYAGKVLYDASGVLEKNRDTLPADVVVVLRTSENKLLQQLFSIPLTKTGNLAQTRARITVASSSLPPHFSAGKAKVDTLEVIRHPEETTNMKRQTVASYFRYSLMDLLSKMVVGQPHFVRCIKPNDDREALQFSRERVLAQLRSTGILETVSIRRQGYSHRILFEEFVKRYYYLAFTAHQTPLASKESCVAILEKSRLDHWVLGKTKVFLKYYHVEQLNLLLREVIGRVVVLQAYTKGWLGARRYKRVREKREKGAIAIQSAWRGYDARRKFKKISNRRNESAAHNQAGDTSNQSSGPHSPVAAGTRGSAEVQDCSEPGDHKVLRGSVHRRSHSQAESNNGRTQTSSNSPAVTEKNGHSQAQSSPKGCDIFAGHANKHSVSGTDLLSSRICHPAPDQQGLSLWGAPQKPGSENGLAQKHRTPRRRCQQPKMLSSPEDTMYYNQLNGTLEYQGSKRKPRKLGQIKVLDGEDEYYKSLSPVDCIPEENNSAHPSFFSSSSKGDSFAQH

[16] = system: Hepatocyte growth factor receptor (Homo sapiens), P08581 [M1250T]; details: Compound concentration 1000.0 nM
[17] = target: Serine/threonine-protein kinase N2 (Homo sapiens) (UniProt Q16513); details: Compound concentration 1000.0 nM
[18] = target: Ankyrin repeat and protein kinase domain-containing protein 1 (Homo sapiens) (UniProt Q8NFD2); details: Compound concentration 1000.0 nM
[19] = target: Protein kinase C iota type (Homo sapiens) (UniProt P41743); details: Compound concentration 1000.0 nM
[20] = target: Serine/threonine-protein kinase 26 (Homo sapiens) (UniProt Q9P289); details: Compound concentration 1000.0 nM
Serine/threonine-protein kinase 26 (Homo sapiens), sequence (Q9P289 2-416 limits assumed): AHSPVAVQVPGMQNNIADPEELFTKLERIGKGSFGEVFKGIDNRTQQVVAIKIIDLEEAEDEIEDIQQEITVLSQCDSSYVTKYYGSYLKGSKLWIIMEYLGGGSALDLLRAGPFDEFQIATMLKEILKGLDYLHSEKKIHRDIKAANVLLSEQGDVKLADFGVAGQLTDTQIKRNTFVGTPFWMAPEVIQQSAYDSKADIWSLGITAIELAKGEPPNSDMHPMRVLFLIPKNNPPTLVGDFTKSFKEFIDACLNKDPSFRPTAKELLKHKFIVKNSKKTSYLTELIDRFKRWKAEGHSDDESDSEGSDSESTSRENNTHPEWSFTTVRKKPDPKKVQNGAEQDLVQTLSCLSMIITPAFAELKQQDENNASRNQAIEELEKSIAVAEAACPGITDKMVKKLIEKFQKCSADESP

[21] = target: Angiopoietin-1 receptor (Homo sapiens) (UniProt Q02763); details: Compound concentration 1000.0 nM
[22] = target: Protein kinase C eta type (Homo sapiens) (UniProt P24723); details: Compound concentration 1000.0 nM
[23] = target: Serine/threonine-protein kinase D2 (Homo sapiens) (UniProt Q9BZL6); details: Compound concentration 1000.0 nM
[24] = target: Tyrosine-protein kinase HCK (Homo sapiens) (UniProt P08631); details: Compound concentration 1000.0 nM
Tyrosine-protein kinase HCK (Homo sapiens), sequence (P08631 2-526 limits assumed): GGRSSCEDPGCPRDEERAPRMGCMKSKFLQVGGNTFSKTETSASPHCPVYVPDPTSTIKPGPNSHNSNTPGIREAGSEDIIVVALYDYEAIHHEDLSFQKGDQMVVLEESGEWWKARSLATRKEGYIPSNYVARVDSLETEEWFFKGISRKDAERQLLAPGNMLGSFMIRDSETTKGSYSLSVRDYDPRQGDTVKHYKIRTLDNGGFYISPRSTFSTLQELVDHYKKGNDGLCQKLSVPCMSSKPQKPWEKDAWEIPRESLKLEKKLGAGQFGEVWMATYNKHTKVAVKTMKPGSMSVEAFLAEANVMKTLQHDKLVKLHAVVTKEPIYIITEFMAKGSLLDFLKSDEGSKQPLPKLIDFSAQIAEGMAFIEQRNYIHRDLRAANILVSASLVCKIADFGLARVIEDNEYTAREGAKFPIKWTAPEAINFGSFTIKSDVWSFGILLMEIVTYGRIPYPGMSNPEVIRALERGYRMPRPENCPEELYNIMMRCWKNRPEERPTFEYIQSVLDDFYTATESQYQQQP

[25] = target: Cyclin-dependent kinase 3 (Homo sapiens) (UniProt Q00526); details: Compound concentration 1000.0 nM
Cyclin-dependent kinase 3 (Homo sapiens), sequence (Q00526 whole entry, looked up): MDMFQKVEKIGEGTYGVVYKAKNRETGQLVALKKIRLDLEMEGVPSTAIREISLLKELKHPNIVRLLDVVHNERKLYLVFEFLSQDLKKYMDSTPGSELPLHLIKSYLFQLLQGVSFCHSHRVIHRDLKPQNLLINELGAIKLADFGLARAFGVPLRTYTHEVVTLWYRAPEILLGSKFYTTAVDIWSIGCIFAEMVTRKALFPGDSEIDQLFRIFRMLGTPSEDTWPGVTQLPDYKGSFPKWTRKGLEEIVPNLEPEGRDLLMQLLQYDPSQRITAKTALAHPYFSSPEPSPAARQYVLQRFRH

[26] = target: Serine/threonine-protein kinase MAK (Homo sapiens) (UniProt P20794); details: Compound concentration 1000.0 nM
[27] = target: Tyrosine-protein kinase JAK1 (Homo sapiens) (UniProt P23458); details: Compound concentration 1000.0 nM
Tyrosine-protein kinase JAK1 (Homo sapiens), sequence (P23458 whole entry): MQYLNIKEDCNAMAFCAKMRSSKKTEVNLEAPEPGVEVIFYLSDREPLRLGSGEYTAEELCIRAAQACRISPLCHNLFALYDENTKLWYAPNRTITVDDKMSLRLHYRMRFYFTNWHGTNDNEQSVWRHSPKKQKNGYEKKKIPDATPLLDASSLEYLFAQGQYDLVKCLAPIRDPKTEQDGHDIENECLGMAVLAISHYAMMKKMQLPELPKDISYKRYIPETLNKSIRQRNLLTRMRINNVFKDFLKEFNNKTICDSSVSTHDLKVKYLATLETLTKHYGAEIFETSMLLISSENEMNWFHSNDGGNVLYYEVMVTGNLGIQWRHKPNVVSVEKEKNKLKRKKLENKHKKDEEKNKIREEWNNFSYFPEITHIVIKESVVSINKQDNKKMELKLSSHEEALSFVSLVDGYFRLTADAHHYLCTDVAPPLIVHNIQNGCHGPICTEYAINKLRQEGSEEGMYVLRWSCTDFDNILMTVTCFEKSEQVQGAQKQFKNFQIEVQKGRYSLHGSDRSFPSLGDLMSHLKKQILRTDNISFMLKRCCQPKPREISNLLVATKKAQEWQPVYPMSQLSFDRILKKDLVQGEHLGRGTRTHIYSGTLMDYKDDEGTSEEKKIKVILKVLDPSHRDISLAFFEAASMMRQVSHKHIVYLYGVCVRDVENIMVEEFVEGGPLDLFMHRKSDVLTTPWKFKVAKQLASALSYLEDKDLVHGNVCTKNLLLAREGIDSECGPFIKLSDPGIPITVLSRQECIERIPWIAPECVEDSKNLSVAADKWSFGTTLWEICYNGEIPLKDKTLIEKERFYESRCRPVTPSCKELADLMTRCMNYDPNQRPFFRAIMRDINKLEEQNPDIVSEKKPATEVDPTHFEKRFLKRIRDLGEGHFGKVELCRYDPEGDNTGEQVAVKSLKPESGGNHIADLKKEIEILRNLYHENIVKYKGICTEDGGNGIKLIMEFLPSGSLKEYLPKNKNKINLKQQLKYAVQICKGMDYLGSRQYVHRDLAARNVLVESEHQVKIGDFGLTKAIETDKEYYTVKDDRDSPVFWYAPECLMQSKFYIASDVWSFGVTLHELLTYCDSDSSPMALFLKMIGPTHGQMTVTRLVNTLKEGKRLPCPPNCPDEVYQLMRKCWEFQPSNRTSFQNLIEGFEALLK

[28] = species: Rattus norvegicus; details: Compound concentration 10.0 uM
[29] = target: Alpha-1D adrenergic receptor (Homo sapiens) (UniProt P25100); details: Compound concentration 10.0 uM
[30] = target: Homeodomain-interacting protein kinase 1 (Homo sapiens) (UniProt Q86Z02); details: Compound concentration 1000.0 nM
[31] = target: Cyclin-dependent kinase 19 (Homo sapiens) (UniProt Q9BWU1); details: Compound concentration 1000.0 nM
[32] = target: Tyrosine-protein kinase Tec (Homo sapiens) (UniProt P42680); details: Compound concentration 1000.0 nM
[33] = target: Rho-associated protein kinase 1 (Homo sapiens) (UniProt Q13464); details: Compound concentration 1000.0 nM
[34] = target: Phosphatidylinositol 4-kinase beta (Homo sapiens) (UniProt Q9UBF8); details: Compound concentration 1000.0 nM
[35] = target: Serine/threonine-protein kinase tousled-like 2 (Homo sapiens) (UniProt Q86UE8); details: Compound concentration 1000.0 nM
[36] = target: Proto-oncogene tyrosine-protein kinase Src (Homo sapiens) (UniProt P12931); details: Compound concentration 1000.0 nM
[37] = target: Tyrosine-protein kinase JAK1 (Homo sapiens) (UniProt P23458); details: Compound concentration 1000.0 nM; remark: listed apart in the source
[38] = target: Receptor tyrosine-protein kinase erbB-4 (Homo sapiens) (UniProt Q15303); details: Compound concentration 1000.0 nM
[39] = target: Tyrosine-protein kinase JAK2 (Homo sapiens) (UniProt O60674); details: Compound concentration 1000.0 nM
[40] = target: Serine/threonine-protein kinase haspin (Homo sapiens) (UniProt Q8TF76); details: Compound concentration 1000.0 nM
Serine/threonine-protein kinase haspin (Homo sapiens), sequence (Q8TF76 whole entry): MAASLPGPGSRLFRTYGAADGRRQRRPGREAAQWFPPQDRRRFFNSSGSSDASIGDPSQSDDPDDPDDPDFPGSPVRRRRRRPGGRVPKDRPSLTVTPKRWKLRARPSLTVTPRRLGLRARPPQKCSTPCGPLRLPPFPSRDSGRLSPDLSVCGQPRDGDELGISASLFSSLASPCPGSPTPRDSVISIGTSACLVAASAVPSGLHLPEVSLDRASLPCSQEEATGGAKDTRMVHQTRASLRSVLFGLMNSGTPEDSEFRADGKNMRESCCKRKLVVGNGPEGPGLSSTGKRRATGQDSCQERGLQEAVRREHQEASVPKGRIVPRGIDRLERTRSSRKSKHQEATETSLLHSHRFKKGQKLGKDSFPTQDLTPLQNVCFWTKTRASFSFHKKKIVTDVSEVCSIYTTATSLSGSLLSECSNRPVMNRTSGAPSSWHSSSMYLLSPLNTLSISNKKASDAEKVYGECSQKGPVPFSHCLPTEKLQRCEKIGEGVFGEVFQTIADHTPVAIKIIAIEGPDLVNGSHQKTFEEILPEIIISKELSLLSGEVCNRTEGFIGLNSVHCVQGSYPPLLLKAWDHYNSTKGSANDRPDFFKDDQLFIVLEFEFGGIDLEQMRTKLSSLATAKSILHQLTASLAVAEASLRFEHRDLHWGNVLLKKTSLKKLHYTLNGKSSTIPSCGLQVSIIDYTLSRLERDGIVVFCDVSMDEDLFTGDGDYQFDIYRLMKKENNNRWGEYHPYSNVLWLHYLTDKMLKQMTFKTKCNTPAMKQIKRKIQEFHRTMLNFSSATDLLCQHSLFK

[41] = target: Mitogen-activated protein kinase 15 (Homo sapiens) (UniProt Q8TD08); details: Compound concentration 1000.0 nM
[42] = target: Inhibitor of nuclear factor kappa-B kinase subunit epsilon (Homo sapiens) (UniProt Q14164); details: Compound concentration 1000.0 nM
[43] = target: Fibroblast growth factor receptor 4 (Homo sapiens) (UniProt P22455); details: Compound concentration 1000.0 nM
[44] = target: 5-hydroxytryptamine receptor 1D (Homo sapiens) (UniProt P28221); details: Compound concentration 10.0 uM
[45] = target: GABA-A receptor; anion channel (Rattus norvegicus) (UniProt O09028+P15431+P18506+P18508+P19969+P20236+P23574+P23576+P28471+P28473+P30191+P62813+P63079+P63138+Q91ZM7+Q9ES14); details: Compound concentration 10.0 uM

CC(=O)C1=C(C)N(c2cccc(C(F)(F)F)c2)C(=O)N[C@@H]1c1ccc(C#N)nc1 [BAY-678]
inactive: residual activity [1] 89.8% | residual activity [2] 100% | residual activity [3] 82.7% | residual activity [4] 84.1% | residual activity [5] 84.6% | residual activity [6] 75.4% | residual activity [7] 100% | residual activity [8] 100% | residual activity [9] 93.9% | residual activity [10] 90% | residual activity [11] 100% | residual activity [12] 93.8% | residual activity [13] 97.8% | residual activity [14] 100% | residual activity [15] 78.3% | residual activity [16] 100% | residual activity [17] 96.3% | residual activity [18] 100% | residual activity [19] 100% | residual activity [20] 100% | residual activity [21] 100% | residual activity [22] 91.3% | residual activity [23] 98.8% | residual activity [24] 87.7% | residual activity [25] 100% | residual activity [26] 82.5% | residual activity [27] 100% | inhibition [28] 20% | inhibition [29] 3.11% | residual activity [30] 72.6% | residual activity [31] 96.9% | residual activity [32] 100% | residual activity [33] 100% | residual activity [34] 100% | residual activity [35] 100% | residual activity [36] 95.9% | residual activity [37] 85.9% | residual activity [38] 90.8% | residual activity [39] 87.1% | residual activity [40] 100% | residual activity [41] 100% | residual activity [42] 98.2% | residual activity [43] 100% | inhibition [44] 10.9% | inhibition [45] 11.9%
